Results published in publication PMC12162873, “Modulating phosphatase DUSP22 with BML-260 ameliorates skeletal muscle wasting via Akt independent JNK-FOXO3a repression” (EMBO Molecular Medicine, 2025).
“And” between values parts separate entries of the source, which are not always exact repeats. Equal values may be shown once.

Key:
[1] = tested on: 24-26-month-old male C57BL/6 mice; assay: Skeletal muscle aging model, BML-260 treatment; assay type: in vivo, mouse; parameters: Area / Feret / Feret, Average / Area, Average: unit not given here; settings: for Area / Feret: listed as BML
Method: To assess DUSP22 pharmacological targeting, BML-260 was treated to 24–26-month-old male C57BL/6 mice as follows: (1) vehicle alone (5% DMSO + 5% tween 80) and (2) 5 mg/kg BML-260 (n = 5 per group). Mice were treated via IP delivery every 24 h for 4 weeks and then assessed for skeletal muscle function and condition.
Grip strength was measured using the BIO-GS3 device (Bioseb, FL, USA). Mice were placed onto the grid with all four paws attached and gently pulled backwards to measure the grip strength until the grid was released. The maximum grip value, used to represent muscle force, was calculated using 3 trials with an interval of 30 s.
Muscle fatigue was measured the previously described protocol (Chiu et al, [2018]), with two different models using the Rotarod. One was the constant model and the other was the accelerating model that is inherent in the rotarod device. In brief, the mice were accommodated to training before the commencement of the fatigue task using an accelerating rotarod (Ugo Basile, Italy). The mice were trained at a constant speed of 13 rpm for 15 min. After a recovery period of 15 min, the mice were placed on the rotarod adjusted to accelerate from 13 to 25 rpm in 3 min for 15 min. 24 h later, the muscle fatigue test was carried out with speeds ramping from 13 to 25 rpm in 3 min, and maintained at 25 rpm for a 30 min interval. Latency to fall off the rotarod was measured for each mouse. A fatigued mouse was classified as falling off 4 times within a 1 min period, which also terminated the test.
Mice were anesthetized using ketamine (22 mg/kg; Yuhan, Republic of Korea) and xylazine (10 mg/kg; Bayer, Republic of Korea) in saline by IP injection. The quadriceps, gastrocnemius, soleus and TA muscles were then dissected and weighed. For histological analysis, the muscles were fixed by overnight incubation with 4% paraformaldehyde in PBS pH 7.4 at 4 °C. Paraffin sectioning and H&E staining were provided by the Animal Housing Facility, Gwangju Institute of Science and Technology, Republic of Korea (5 µm muscle sections using a Thermo Scientific HistoStar (Thermofisher). H&E staining was carried out with a kit (Merck, Germany)). For immunohistochemistry, TA muscle sections were permeabilized for 15 min (PBS with 0.5% Triton X-100), blocked for 1 h (5% BSA) and incubated with the primary antibody overnight at 4 °C (a list of primary and secondary antibodies used in this study are provided in Appendix Tables S4 and S5, respectively). After washing with PBS 3 times for 5 min, the sections were incubated with the secondary antibody at RT for 1 h. The nuclei were counterstained with DAPI in ProLong™ Gold Antifade Mountant (Invitrogen, P36935). Digital images were acquired with Leica DM 2500 (Leica Microsystems). Cross sectional area (CSA) and fiber size distribution was measured using the NIH imaging software Image J 64. To CSA and size distribution of different fiber types was calculated in 4 muscle section as follows: type 2 A: 30–40 fibers measured; type 2B: at least 100 fibers measured; type 2X: 30–40 fibers measured.

[2] = tested on: TA muscle of C57BL/6 mice; assay: Whole genome RNA-Seq of TA muscle of geriatric mice; assay type: in vivo, mouse; settings: 5 mg/kg IP every 24 h for 4 weeks
Description: Figure 8 Whole genome RNA Seq analysis of DUSP22 pharmacological targeting in geriatric mouse TA muscle. (A) Principal component analysis of gene expression variance in the vehicle treated (Con) and BML-260 treated groups (n = 3). (B) Volcano plot of differentially expressed genes. Selected genes linked to FOXO3a signaling are indicated. (C) Expression analysis of genes related to FOXO3a signaling measured by overall TPM fold change. The control was set as the baseline value of 1. A value of 2 would indicate a 2-fold increase, and 0.5 would indicates a 2-fold decrease. (D) Expression of selected genes linked to FOXO3a signaling as normalized counts from the raw read. (E) Expression of the exercise-induced myokine musclin (Ostn). (F) Gene ontology (GO) analysis of the […] muscle cell differentiation and muscle fiber development. Also shown are Six1 and Six4 (which specify fast twitch myofiber development), Ostn and fast myosin (MYH4; the predominant myosin type in the fast-twitch TA muscle). Box plots represent the distribution of Fbxo32, Trim63, Fbxo30, Gadd45a, Ctsl, Bnip3, Ostn expression levels. The center line indicates the median (50th percentile, Q2), representing the middle value of the dataset. The box bounds correspond to the interquartile range (IQR), extending from the 25th percentile (Q1, lower bound) to the 75th percentile (Q3, upper bound). Whiskers extend to the smallest and largest values within 1.5 × IQR from Q1 and Q3, representing the minimum (lower whisker) and maximum (upper whisker) values within this range. […] Error bars represent the standard error of the mean (SEM). Source data are available online for this figure.
RNA samples were harvested from the TA muscles of 24–26-month-old male C57BL/6 mice treated as follows: (1) vehicle alone (5% DMSO + 5% tween 80) and (2) 5 mg/kg BML-260. Mice were treated by IP delivery every 24 h for 4 weeks (n = 3 per group). RNA-Seq was provided by Macrogen, Republic of Korea. Prior to the commencement of sequencing, QC was carried out using FastQC v0.11.7 (http://www.bioinformatics.babraham.ac.uk/projects/fastqc/). Illumina paired ends or single ends in the sequenced samples were trimmed using Trimmomatic 0.38 with various parameters (http://www.usadellab.org/cms/?page=trimmomatic). The sequences of the samples were mapped and analyzed using HISAT2 version 2.1,0, Bowtie2 2.3.4.1 (https://ccb.jhu.edu/software/hisat2/index.shtml). Potential transcripts and multiple splice variants were assembled using StringTie version 2.1.3b (https://ccb.jhu.edu/software/stringtie/). The normalized sample counts were generated using DESeq2, which was also used for normalization, visualization, and differential analysis. PCA was performed using normalized sample counts. The “apeglm” type was used to calculate shrink log2 fold changes.

[3] = parameters: method as in ref [9] Feng et al, 2019; settings: pH range 3 to 7.4, HPLC; ref [9] Feng et al, 2019; cited from earlier work
adipocytes = tested on: adipocytes; parameters: method as in Feng et al, 2019; settings: ref Feng et al, 2019; cited from earlier work
[4] = 5 mg/kg IP every 24 h for 4 weeks
[5] = S10.B, group average of 3 animals
[6] = S10.B, individual measurements, animal BML 1
[7] = S10.B, mean per animal (BML 1, BML4, BML5)

O=C(O)c1ccc(N2C(=O)C(=Cc3ccccc3)SC2=S)cc1 (stereo in doubt) [BML-260]
CSA and Feret's diameter of type 2A, 2B and 2X myofibers, TA and gastrocnemius [1, 4]: increased | DUSP22 levels in the TA muscle, western blot [1, 4]: reduced DUSP22 levels | body weight [1, 4]: not significantly affected | expression of PGC-1α, qPCR [1, 4]: increased | expression of atrogin-1 and MuRF-1 in the TA muscle, qPCR [1, 4]: reduced | expression of myostatin, qPCR [1, 4]: reduced | grip strength mean value [1, 4]: increased by BML-260 treatment but did not reach statistical significance | latency to fall in the rotarod test [1, 4]: statistically increased | mass of quadriceps, gastrocnemius, TA and soleus muscles [1, 4]: increased the mean mass value of the quadriceps, gastrocnemius, TA and soleus muscles, and reached statistical significance for the TA and gastrocnemius muscles | proportion of slow type 1 myofibers [1, 4]: did not significantly affect | Area, Average [1, 5]: 2003.72 | Feret, Average [1, 5]: 60.0894 | Area [1, 6]: 2289.78 and 2476.44 and 2826.67 and 1960.89 and 2172.44 and 1594.67 and 2152.89 and 2090.67 and 1617.78 and 2085.33 and 2567.11 | Feret [1, 6]: 75.248 and 68.56 and 66.573 and 63.175 and 60.296 and 56.506 and 57.366 and 56.056 and 52.173 and 66.306 and 72.271 | Area [1, 7]: 2166.79 and 2165.89 and 1678.47 | Feret [1, 7]: 63.1391 and 63.015 and 54.114 | DUSP22 expression, western blot quantification, Average ([1]; TA of aged mice (Fig EV4A), Young average = 1): 0.2806 | DUSP22 expression, western blot quantification ([1]; TA of aged mice (Fig EV4A), Young average = 1, individual animals): 0.2303 and 0.3985 and 0.213 | increase of grip strength ([1]; aged skeletal muscle): > 20% | expression of Six1 and Six4 [2]: upregulated | expression of fast myosin (MYH4) [2]: increased | expression of musclin (OSTN) [2]: upregulated | genes linked to FOXO3a signaling (including atrogin-1 and MuRF-1) [2]: downregulated | genes linked to the PI3K-Akt pathway [2]: downregulated | number of differentially expressed genes (DEGs) ([2]; versus vehicle): 350 | stability at pH values within normal physiological conditions [3]: predicted to be stable | expression of uncoupling protein-1 (UCP-1) (adipocytes): upregulates
